Literature values, collected in patent publication US9855260B2, “Quinolinone derivatives” (GlaxoSmithKline LLC, priority 2011, dated 2018).

System: ob/ob and db/db mice
Conditions: 8 day administration

NC(=O)c1ncn([C@@H]2O[C@H](CO)[C@@H](O)[C@H]2O)c1N [AICAR, 5-aminoimidazole-4-carboxamide-1(beta)-D-ribofuranoside]
reduces blood glucose: 35%
